From patent US11331289B2, “Antimicrobial composition” (priority 2017, dated 2022)

Legend:
MRSA 16116 = assay: Time-killing curve, inoculum 5.10^5 CFU/ml (MIC 0.5 μg/ml); format: cell-based, Staphylococcus aureus
Experimental: (§1) The objective of this study is to assess in vitro the time-killing curves of oxyclozanide against four strains of Methicillin-Resistant Staphylococcus from dogs.
(§2) Two Methicillin-Resistant Staphylococcus aureus (MRSA) and two Methicillin-Resistant Staphylococcus pseudintermedius (MRSP) isolated from the clinics have been tested.
(§3) The assessment of time-killing curves has been realized by a broth macrodilution method (Mueller-Hinton II Broth).
(§4) Oxyclozanide is diluted in (DMSO) into sterile tubes in order to obtain the following concentrations from 800 to 6.25 μg/ml. Those concentrations and stock standard solution are then diluted (1/10) in Mueller-Hinton II Broth in order to obtain the following concentrations from […] (See Table 2).
(§5) Each operation is performed under sterile conditions. Each working standard solution (10*the final active ingredient concentration) is distributed in tubes (1 ml, for a final volume of 10 ml after addition of 9 ml of inoculum). One tube without active ingredient is used as growth control (Concentration=0).
(§6) Bacterial isolates are sub-cultured from one cryobead on Columbia agar supplemented with 5% of blood. Pure cultures are incubated during 18-24 hours at 37° C. Three to five isolated colonies of similar appearance are selected from a previous culture and transferred into tubes containing 9 ml of Mueller-Hinton II Broth. The broth is incubated during 12-18 hours at 37° C. 0.5 to 1 ml of this broth is inoculated to another Mueller-Hinton II Broth 9 ml tube which is incubated during 3 to 4 hours at 37° C. to reach the exponential growth phase. The bacterial inoculum grown exponential phase is suspended to an optical density of McFarland standard scale 0.5 equivalent to a bacterial density of 10^8 CFU/ml and then adjusted to a concentration of about 5.10^5 CFU/ml as indicated by the guideline CLSI M26-A and to a second inoculum tested: 10^6 CFU/ml.
(§7) 9 ml of bacterial inoculum grown to exponential phase is added to 1 ml of active ingredient (or Mueller Hinton II Broth for the growth control). Tubes are incubated at 35° C. during 24 hours.
(§8) At times 0, 2, 4, 6 and 24 hours, 100 μl of broth of each tube is sampled and diluted in microplates:
(§9) Each well is re-cultured by streaking 10 μl on Columbia agar supplemented with 5% of blood. Plates are incubated at 37° C. during 18-24 hours incubation. Thus, residual bacterial concentrations are determined (CFU/ml). Results are expressed in log10 values of CFU/ml over-time in broth. Due to the procedure used, the minimal bacterial concentration that can be assessed is 10^2 CFU/ml.

MRSA 16110 = assay: Time-killing curve, inoculum 10^6 CFU/ml (MIC 1 μg/ml); format: cell-based, Staphylococcus aureus
Experimental: as §1, §2, §3, §4, §5, §6, §7, §8, §9

[1] = test system: Methicillin-Resistant Staphylococcus aureus (MRSA) 16116, 16110; assay: Oxyclo MIC of MRSA strains; format: cell-based
[2] = test system: Methicillin-Resistant Staphylococcus pseudintermedius (MRSP) 16125, 16127; assay: Oxyclo MIC of MRSP strains; format: cell-based

`O=C(Nc1cc(Cl)cc(Cl)c1O)c1c(O)c(Cl)cc(Cl)c1Cl` [Oxyclozanide] was tested, and the Counting results (MRSA 16116; 1 MIC, 0 h) was 3.900E+05 CFU/ml, the Counting results (MRSA 16116; 1 MIC, 2 h) was 1.700E+06 CFU/ml and the Counting results (MRSA 16116; 1 MIC, 4 h) was 2.500E+07 CFU/ml. The Counting results (MRSA 16116; 1 MIC, 6 h) was 1.600E+08 CFU/ml, the Counting results (MRSA 16116; 1 MIC, 24 h) was 1.300E+08 CFU/ml and the Counting results (MRSA 16116; 2 MIC, 0 h) was 3.900E+05 CFU/ml. The Counting results (MRSA 16116; 2 MIC, 2 h) was 1.200E+05 CFU/ml, the Counting results (MRSA 16116; 2 MIC, 4 h) was 1.300E+04 CFU/ml and the Counting results (MRSA 16116; 2 MIC, 6 h) was 1.400E+04 CFU/ml. For the same compound, the Counting results (MRSA 16116; 2 MIC, 24 h) was 3.500E+06 CFU/ml, the Counting results (MRSA 16116; 4 MIC, 0 h) was 3.900E+05 CFU/ml and the Counting results (MRSA 16116; 4 MIC, 2 h) was 6.000E+03 CFU/ml. The Counting results (MRSA 16116; 4 MIC, 4 h) was 6.000E+02 CFU/ml, the Counting results (MRSA 16116; 4 MIC, 6 h) was 4.000E+02 CFU/ml and the Counting results (MRSA 16116; 4 MIC, 24 h) was 1.000E+02 CFU/ml. For the same compound, the Counting results (MRSA 16116; 8 MIC, 0 h) was 3.900E+05 CFU/ml, the Counting results (MRSA 16116; 8 MIC, 2 h) was 5.000E+02 CFU/ml and the Counting results (MRSA 16116; 8 MIC, 4 h) was 1.000E+02 CFU/ml. It also gave a Counting results (MRSA 16116; 8 MIC, 6 h) of 1.000E+02 CFU/ml, a Counting results (MRSA 16116; 8 MIC, 24 h) of 1.000E+02 CFU/ml and a Counting results (MRSA 16116; 16 MIC, 0 h) of 3.900E+05 CFU/ml. For the same compound, the Counting results (MRSA 16116; 16 MIC, 2 h) was 3.000E+02 CFU/ml, the Counting results (MRSA 16116; 16 MIC, 4 h) was 1.000E+02 CFU/ml and the Counting results (MRSA 16116; 16 MIC, 6 h) was 3.000E+02 CFU/ml. The Counting results (MRSA 16116; 16 MIC, 24 h) was 1.000E+02 CFU/ml, the “Time to obtain bactericidal effect at 4 MIC” value (MRSA 16116; 16116/5.10^5 CFU/ml, >=3 log10 decrease in CFU) was 4 to 6 h and the Counting results (MRSA 16116; ¼ MIC, 0 h) was 3.900E+05 CFU/ml. The Counting results (MRSA 16116; ¼ MIC, 2 h) was 2.000E+06 CFU/ml, the Counting results (MRSA 16116; ¼ MIC, 4 h) was 4.000E+07 CFU/ml and the Counting results (MRSA 16116; ¼ MIC, 6 h) was 3.000E+08 CFU/ml. For the same compound, the Counting results (MRSA 16116; ¼ MIC, 24 h) was 1.900E+09 CFU/ml, the Counting results (MRSA 16116; ½ MIC, 0 h) was 3.900E+05 CFU/ml and the Counting results (MRSA 16116; ½ MIC, 2 h) was 1.700E+06 CFU/ml. For the same compound, the Counting results (MRSA 16116; ½ MIC, 4 h) was 3.000E+07 CFU/ml, the Counting results (MRSA 16116; ½ MIC, 6 h) was 1.400E+08 CFU/ml and the Counting results (MRSA 16116; ½ MIC, 24 h) was 2.600E+08 CFU/ml. The Counting results (MRSA 16110; 1 MIC, 0 h) was 2.000E+06 CFU/ml, the Counting results (MRSA 16110; 1 MIC, 2 h) was 8.300E+04 CFU/ml and the Counting results (MRSA 16110; 1 MIC, 4 h) was 3.400E+04 CFU/ml. The Counting results (MRSA 16110; 1 MIC, 6 h) was 3.500E+03 CFU/ml, the Counting results (MRSA 16110; 1 MIC, 24 h) was 7.900E+06 CFU/ml and the Counting results (MRSA 16110; 2 MIC, 0 h) was 2.000E+06 CFU/ml. For the same compound, the Counting results (MRSA 16110; 2 MIC, 2 h) was 4.000E+02 CFU/ml, the Counting results (MRSA 16110; 2 MIC, 4 h) was 2.000E+02 CFU/ml and the Counting results (MRSA 16110; 2 MIC, 6 h) was 1.000E+02 CFU/ml. The Counting results (MRSA 16110; 2 MIC, 24 h) was 1.000E+02 CFU/ml, the Counting results (MRSA 16110; 4 MIC, 0 h) was 2.000E+06 CFU/ml and the Counting results (MRSA 16110; 4 MIC, 2 h) was 1.000E+02 CFU/ml. It also gave a Counting results (MRSA 16110; 4 MIC, 4 h) of 1.000E+02 CFU/ml, a Counting results (MRSA 16110; 4 MIC, 6 h) of 1.000E+02 CFU/ml and a Counting results (MRSA 16110; 4 MIC, 24 h) of 1.000E+02 CFU/ml. It also gave a Counting results (MRSA 16110; 8 MIC, 0 h) of 2.000E+06 CFU/ml, a Counting results (MRSA 16110; 8 MIC, 2 h) of 1.000E+02 CFU/ml and a Counting results (MRSA 16110; 8 MIC, 4 h) of 1.000E+02 CFU/ml. It also gave a Counting results (MRSA 16110; 8 MIC, 6 h) of 1.000E+02 CFU/ml, a Counting results (MRSA 16110; 8 MIC, 24 h) of 1.000E+02 CFU/ml and a Counting results (MRSA 16110; 16 MIC, 0 h) of 2.000E+06 CFU/ml. The Counting results (MRSA 16110; 16 MIC, 2 h) was 2.000E+02 CFU/ml, the Counting results (MRSA 16110; 16 MIC, 4 h) was 1.000E+02 CFU/ml and the Counting results (MRSA 16110; 16 MIC, 6 h) was 1.000E+02 CFU/ml. The Counting results (MRSA 16110; 16 MIC, 24 h) was 1.000E+02 CFU/ml, the “Time to obtain bactericidal effect at 4 MIC” value (MRSA 16110; 16110/10^6 CFU/ml, >=3 log10 decrease in CFU) was 2 h and the Counting results (MRSA 16110; ¼ MIC, 0 h) was 2.000E+06 CFU/ml. The Counting results (MRSA 16110; ¼ MIC, 2 h) was 8.000E+06 CFU/ml, the Counting results (MRSA 16110; ¼ MIC, 4 h) was 4.000E+07 CFU/ml and the Counting results (MRSA 16110; ¼ MIC, 6 h) was 2.400E+07 CFU/ml. It also gave a Counting results (MRSA 16110; ¼ MIC, 24 h) of 4.100E+07 CFU/ml, a Counting results (MRSA 16110; ½ MIC, 0 h) of 2.000E+06 CFU/ml and a Counting results (MRSA 16110; ½ MIC, 2 h) of 6.900E+05 CFU/ml. The Counting results (MRSA 16110; ½ MIC, 4 h) was 4.300E+06 CFU/ml, the Counting results (MRSA 16110; ½ MIC, 6 h) was 4.800E+07 CFU/ml and the Counting results (MRSA 16110; ½ MIC, 24 h) was 3.700E+07 CFU/ml. The MIC ([1]; MRSA 16110) was 1 µg/mL, the MIC ([1]; MRSA 16116) was 0.5 µg/mL and the MIC ([2]; MRSP 16125) was 0.5 µg/mL. For the same compound, the MIC ([2]; MRSP 16127) was 0.25 µg/mL.
